Assay results taken from US6242450A, “5-HT1F antagonists” (Eli Lilly and Company, priority 1999, dated 2001).

System: male Wister rats
Assay: Social interaction test of anxiety
Format: in vivo
Settings: rat, 20 mg/kg intraperitoneal, 1 hour before test, 5 minutes observation, significance at p<0.01
Protocol: The procedure for this assay is summarized below.
All experiments were performed on male Wister rats (Harlan laboratories, 275-300 gm). The rats were individually housed in a temperatu,re controlled room (72° F.) on a 12 hour day/night cycle. The rats were provided food and water ad libitum.
Approximately 40 mg of the test compound was weighed into a 20 mL glass vial. To this solid were added 80 μL of lactic acid (85%). The mixture was sonicated for 2 minutes and then 4 mL of distilled water was added in 1 mL increments. Sonication of this mixture was continued until all of the solid had dissolved. Following sonication, the pH of the mixture was raised by the addition of dilute aqueous sodium hydroxide until the mixture reached a pH of about 5.5.
Each rat was weighed and the test compound administered by intraperitoneal injection at 20 mg/kg of body weight. […]
Experimental anxiety was measured by a social interaction test. […] A video camera was fixed above the social interaction box and all behavioral tests were recorded. […] The amount of time that the rat which received test compound spent interacting (i.e. grooming, sniffing, crawling upon) with the other rat was recorded. […]
Social interaction data was analyzed as total interaction time in seconds and the raw scores were compared between baseline and treatment. […]

O[C@H](COc1ccc2ccccc2c1)CN1CCC(O)(c2cnc3ccccc3c2)CC1 [Example 37, 1-((2S)-hydroxy-3-(naphth-2-yloxy)prop-1-yl)-4-hydroxy-4-(quinolin-3-yl)piperidine]
social interaction time as compared to baseline: significantly increase social interaction time as compared to baseline
